Results published in patent US9505749B2, “Quinazolinone compounds and derivatives thereof” (AMGEN INC., priority 2012, dated 2016).
Read-outs that look alike come from different tables or passages of the source.

Assays:
PARP1 = PARP1 (Homo sapiens (Human), UniProt P09874); assay: PARP1 biochemical assay (Trevigen kit)
From the text: PARP1 biochemical assay was purchased as a kit from Trevigen (cat.#4676-096-K) and used per manufacturers recommendations.

[1] = target: 6×HIS-tankyrase 2 (946-1162) (Homo sapiens (Human), UniProt Q9H2K2); assay: Tankyrase 2 biochemical assay (AlphaLisa, PARsylation); details: 250 nM NAD; read-out: TNKS2 IC50
Sequence of 6×HIS-tankyrase 2 (946-1162) (Q9H2K2 946-1162): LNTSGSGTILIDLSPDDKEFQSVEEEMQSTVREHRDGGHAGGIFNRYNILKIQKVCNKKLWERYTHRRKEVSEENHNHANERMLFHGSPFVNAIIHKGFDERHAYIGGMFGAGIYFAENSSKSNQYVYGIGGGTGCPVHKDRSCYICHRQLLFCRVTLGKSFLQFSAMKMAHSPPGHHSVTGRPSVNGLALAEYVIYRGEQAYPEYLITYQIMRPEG

[2] = target: 6×HIS-tankyrase1 (1091-1325) (Homo sapiens (Human), UniProt O95271); assay: Tankyrase 1 biochemical assay (AlphaLisa, PARsylation); details: read-out: TNKS1 IC50
Sequence of 6×HIS-tankyrase1 (1091-1325) (O95271 1091-1325): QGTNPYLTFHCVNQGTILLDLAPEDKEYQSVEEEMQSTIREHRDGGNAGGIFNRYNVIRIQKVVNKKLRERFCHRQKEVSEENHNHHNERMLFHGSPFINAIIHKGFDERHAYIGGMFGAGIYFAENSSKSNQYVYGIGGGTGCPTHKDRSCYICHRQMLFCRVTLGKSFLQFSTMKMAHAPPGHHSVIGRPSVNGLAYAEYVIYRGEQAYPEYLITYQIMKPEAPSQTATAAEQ

PARP2 = PARP2 (Homo sapiens (Human), UniProt Q9UGN5); assay: PARP2 biochemical assay (BPS kit)
Sequence of PARP2 (Q9UGN5 whole entry): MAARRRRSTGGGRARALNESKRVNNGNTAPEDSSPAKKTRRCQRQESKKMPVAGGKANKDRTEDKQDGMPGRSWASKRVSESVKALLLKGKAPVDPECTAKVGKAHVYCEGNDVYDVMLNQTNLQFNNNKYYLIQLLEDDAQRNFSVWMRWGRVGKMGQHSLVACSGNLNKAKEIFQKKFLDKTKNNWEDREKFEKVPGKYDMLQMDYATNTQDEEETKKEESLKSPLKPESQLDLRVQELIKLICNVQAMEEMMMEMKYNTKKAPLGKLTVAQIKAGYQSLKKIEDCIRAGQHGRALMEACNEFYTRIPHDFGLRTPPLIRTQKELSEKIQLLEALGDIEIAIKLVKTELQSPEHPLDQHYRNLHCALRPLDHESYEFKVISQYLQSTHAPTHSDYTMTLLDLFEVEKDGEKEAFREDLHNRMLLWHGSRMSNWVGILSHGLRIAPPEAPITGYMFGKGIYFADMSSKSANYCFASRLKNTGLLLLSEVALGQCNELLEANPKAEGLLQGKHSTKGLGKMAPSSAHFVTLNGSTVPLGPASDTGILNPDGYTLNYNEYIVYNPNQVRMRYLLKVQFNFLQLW

[3] = tested on: total β-catenin in SW480 colorectal cells; assay: Total β-catenin MSD 96-well plate assay for SW480 cells; details: Homo sapiens, SW480, read-out: SW480-Total beta-catenin (TBC) IC50 IP
[4] = tested on: Axin2 accumulation in SW480 cells; assay: Axin2 384 immunofluorescence assay; format: cell-based; details: Homo sapiens, read-out: Axin2 384 IF EC50

Sequence of PARP1 (P09874 whole entry): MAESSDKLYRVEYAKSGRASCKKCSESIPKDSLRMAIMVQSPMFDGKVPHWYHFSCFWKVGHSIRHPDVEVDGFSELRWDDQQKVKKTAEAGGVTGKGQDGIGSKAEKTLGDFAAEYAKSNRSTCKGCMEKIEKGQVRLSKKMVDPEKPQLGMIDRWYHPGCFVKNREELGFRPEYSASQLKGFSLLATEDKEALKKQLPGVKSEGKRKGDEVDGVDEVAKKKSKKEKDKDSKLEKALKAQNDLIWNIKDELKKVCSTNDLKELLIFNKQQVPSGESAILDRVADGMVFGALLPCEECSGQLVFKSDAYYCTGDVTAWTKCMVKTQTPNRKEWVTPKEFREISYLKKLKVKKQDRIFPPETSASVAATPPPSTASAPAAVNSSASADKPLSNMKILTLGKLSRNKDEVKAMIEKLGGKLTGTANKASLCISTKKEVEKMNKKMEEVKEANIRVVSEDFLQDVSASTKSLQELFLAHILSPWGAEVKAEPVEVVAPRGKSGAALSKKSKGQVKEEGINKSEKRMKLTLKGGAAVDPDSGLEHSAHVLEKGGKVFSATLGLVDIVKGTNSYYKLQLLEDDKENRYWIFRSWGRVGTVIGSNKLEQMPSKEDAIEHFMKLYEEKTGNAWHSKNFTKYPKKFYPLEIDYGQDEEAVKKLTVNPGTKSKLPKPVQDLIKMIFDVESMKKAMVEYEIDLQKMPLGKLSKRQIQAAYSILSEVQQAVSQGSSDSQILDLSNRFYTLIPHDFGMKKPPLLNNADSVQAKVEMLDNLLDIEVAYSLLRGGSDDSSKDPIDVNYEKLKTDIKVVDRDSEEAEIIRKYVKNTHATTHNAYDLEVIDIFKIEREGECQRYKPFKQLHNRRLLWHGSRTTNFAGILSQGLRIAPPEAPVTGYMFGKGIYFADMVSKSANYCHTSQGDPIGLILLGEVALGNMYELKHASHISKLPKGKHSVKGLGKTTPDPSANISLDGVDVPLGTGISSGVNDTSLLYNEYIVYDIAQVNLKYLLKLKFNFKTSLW

IC50 (PARP1) | IC50 [1] | IC50 ([2]; 400 nM NAD, 60 minutes at RT) | IC50 (PARP2) | IC50 [3] | EC50 ([4]; SW480 cells, 24 hours) | Structure (SMILES) | IC50 [2] | EC50 ([4]; SW480, 24 h)
3200 nM | 17 nM | 39.1 nM | 673 nM | 1120 nM | 3630 nM | Cn1c(=O)n(C2CCN(C(=O)CCCc3nc4ccccc4c(=O)[nH]3)CC2)c2ccccc21 [Example 54, 2-(4-(4-(3-methyl-2-oxo-2,3-dihydro-1H-benzimidazol-1-yl)-1-piperidinyl)-4-oxobutyl)-4(3H)-quinazolinone] | – | –
3830 nM | 0.193 nM | 1.3 nM | 1020 nM | 25.2 nM | 94.7 nM | O=C(CCCc1nc2ccccc2c(=O)[nH]1)N1CCC(n2c(=O)[nH]c3cc(C(F)(F)F)ccc32)CC1 [Example 52, 2-(4-oxo-4-(4-(2-oxo-5-(trifluoromethyl)-2,3-dihydro-1H-benzimidazol-1-yl)-1-piperidinyl)butyl)-4(3H)-quinazolinone trifluoroacetic acid] | – | –
3050 nM | 2.54 nM | 11 nM | 414 nM | 41.7 nM | 260 nM | O=C(CCCc1nc2ccccc2c(=O)[nH]1)N1CCC(c2nnc(-c3cccc(Cl)c3)o2)CC1 [Example 3, 2-(4-(4-(5-(3-chlorophenyl)-1,3,4-oxadiazol-2-yl)-1-piperidinyl)-4-oxobutyl)-4(3H)-quinazolinone] | – | –
867 nM | 1.6 nM | 2.76 nM | 103 nM | 157 nM | 247 nM | Cc1ccc2c(c1)[nH]c(=O)n2C1CCN(C(=O)CCCc2nc3ccccc3c(=O)[nH]2)CC1 [Example 11, 2-(4-(4-(5-methyl-2-oxo-2,3-dihydro-1H-benzimidazol-1-yl)-1-piperidinyl)-4-oxobutyl)-4(3H)-quinazolinone] | – | –
1690 nM | 4.95 nM | 18.8 nM | 1110 nM | 226 nM | 257 nM | COc1cccc(-c2nnc(C3CCN(C(=O)CCCc4nc5ccccc5c(=O)[nH]4)CC3)o2)c1 [Example 24, 2-(4-(4-(5-(3-methoxyphenyl)-1,3,4-oxadiazol-2-yl)piperidin-1-yl)-4-oxobutyl)quinazolin-4(3H)-one] | – | –
629 nM | 0.981 nM | 1.97 nM | 431 nM | 101 nM | 96.9 nM | COc1ccc2[nH]c(=O)n(C3CCN(C(=O)CCCc4nc5ccccc5c(=O)[nH]4)CC3)c2c1 [Example 34, 2-(4-(4-(6-methoxy-2-oxo-2,3-dihydro-1H-benzimidazol-1-yl)-1-piperidinyl)-4-oxobutyl)-4(3H)-quinazolinone] | – | –
2570 nM | 0.593 nM | 3.17 nM | 998 nM | 50.3 nM | 359 nM | O=C(CCCc1nc2ccccc2c(=O)[nH]1)N1CCC(n2c(=O)oc3cc(F)ccc32)CC1 [Example 53, 2-(4-(4-(6-fluoro-2-oxo-1,3-benzoxazol-3(2H)-yl)-1-piperidinyl)-4-oxobutyl)-4(3H)-quinazolinone trifluoroacetic acid] | – | –

The next lines start with the molecule.

Structure (SMILES) | IC50 (PARP1) | IC50 [1] | IC50 ([2]; 400 nM NAD, 60 minutes at RT) | IC50 (PARP2) | IC50 [3] | EC50 ([4]; SW480 cells, 24 hours) | IC50 [2] | EC50 ([4]; SW480, 24 h)
O=C(CCCc1nc2ccccc2c(=O)[nH]1)N1CCC(c2nnc(-c3ccncc3)o2)CC1 [Example 19, 2-(4-oxo-4-(4-(5-(4-pyridinyl)-1,3,4-oxadiazol-2-yl)-1-piperidinyl)butyl)-4(3H)-quinazolinone] | 4920 nM | 4.86 nM | 15 nM | 1120 nM | 248 nM | 291 nM | – | –
O=C(CCCc1nc2ccccc2c(=O)[nH]1)N[C@H]1CC[C@H](c2nnc(-c3cccc(F)c3)o2)CC1 [Example 31, N-(trans-4-(5-(3-fluorophenyl)-1,3,4-oxadiazol-2-yl)cyclohexyl)-4-(4-oxo-3,4-dihydro-2-quinazolinyl)butanamide] | 1050 nM | 0.237 nM | 0.469 nM | 1150 nM | 24.8 nM | 30.9 nM | – | –
O=C(CSc1nc2ccccc2c(=O)[nH]1)N[C@H]1CC[C@H](n2c(=O)[nH]c3ccc(Cl)cc32)CC1 [Example 102, N-((1r,4r)-4-(6-chloro-2-oxo-2,3-dihydro-1H-benzo[d]imidazol-1-yl)cyclohexyl)-2-((4-oxo-3,4-dihydroquinazolin-2-yl)thio)acetamide] | > 85000 nM | 0.458 nM | 0.118 nM | 1650 nM | 55.4 nM | 38.1 nM | – | –
COc1ccc(-c2nnc([C@H]3CC[C@H](NC(=O)CCSc4nc5ccccc5c(=O)[nH]4)CC3)o2)cc1 [Example 121, N-((1r,4r)-4-(5-(4-methoxyphenyl)-1,3,4-oxadiazol-2-yl)cyclohexyl)-3-((4-oxo-3,4-dihydroquinazolin-2-yl)thio)propanamide] | 4430 nM | 18.1 nM | 0.0724 nM | 6780 nM | 1.1 nM | 1.98 nM | – | –
COc1cccc(-c2nnc([C@H]3CC[C@H](NC(=O)CCCc4nc5ccccc5c(=O)[nH]4)CC3)o2)c1 [Example 32, N-(trans-4-(5-(3-methoxyphenyl)-1,3,4-oxadiazol-2-yl)cyclohexyl)-4-(4-oxo-3,4-dihydro-2-quinazolinyl)butanamide] | 801 nM | 0.301 nM | 0.495 nM | 828 nM | 15.7 nM | 32.5 nM | – | –
N#Cc1cc(O[C@H]2CC[C@H](NC(=O)CCCc3nc4ccccc4c(=O)[nH]3)CC2)ccc1Cl [Example 63, N-(trans-4-(4-chloro-3-cyanophenoxy)cyclohexyl)-4-(4-oxo-3,4-dihydro-2-quinazolinyl)butanamide] | 586 nM | 0.653 nM | 2.33 nM | 802 nM | 211 nM | 270 nM | – | –
O=C(CCCc1nc2ccccc2c(=O)[nH]1)N1CCC(N2C(=O)Cc3ccccc32)CC1 [Example 43, 2-(4-oxo-4-(4-(2-oxo-2,3-dihydro-1H-indol-1-yl)-1-piperidinyl)butyl)-4(3H)-quinazolinone] | 6420 nM | 16.6 nM | – | 1060 nM | 1910 nM | – | 33.5 nM | 3880 nM
COc1ccc(-c2nnc([C@H]3CC[C@H](NC(=O)CCCc4nc5ccccc5c(=O)[nH]4)CC3)o2)cc1 [Example 30, N-(trans-4-(5-(4-methoxyphenyl)-1,3,4-oxadiazol-2-yl)cyclohexyl)-4-(4-oxo-3,4-dihydro-2-quinazolinyl)butanamide] | 1060 nM | 0.191 nM | 0.567 nM | 1270 nM | 10.6 nM | 13.9 nM | – | –
O=C(CCCc1nc2ccccc2c(=O)[nH]1)N1CCN(c2n[nH]c3ccccc23)CC1 [Example 55, 2-(4-(4-(1H-indazol-3-yl)-1-piperazinyl)-4-oxobutyl)-4(3H)-quinazolinone] | 1800 nM | 0.401 nM | 1.76 nM | 284 nM | 46.5 nM | 193 nM | – | –
O=C(CCCc1nc2ccccc2c(=O)[nH]1)N1CCC(c2nnc(-c3ccc(Cl)cc3)o2)CC1 [Example 4, 2-(4-(4-(5-(4-chlorophenyl)-1,3,4-oxadiazol-2-yl)piperidin-1-yl)-4-oxobutyl)quinazolin-4(3H)-one] | 2410 nM | 2.06 nM | 11 nM | 961 nM | 36.4 nM | 210 nM | – | –
O=C(CCCc1nc2ccccc2c(=O)[nH]1)N1CCC(c2nnc(-c3ccccc3F)o2)CC1 [Example 18, 2-(4-(4-(5-(2-fluorophenyl)-1,3,4-oxadiazol-2-yl)-1-piperidinyl)-4-oxobutyl)-4(3H)-quinazolinone] | 4470 nM | 20.9 nM | 54.4 nM | 1120 nM | 760 nM | 732 nM | – | –
O=C(CCCc1nc2ccccc2c(=O)[nH]1)N1CCC(c2nnc(-c3ccccn3)o2)CC1 [Example 12, 2-(4-oxo-4-(4-(5-(2-pyridinyl)-1,3,4-oxadiazol-2-yl)-1-piperidinyl)butyl)-4(3H)-quinazolinone] | 6290 nM | 15.9 nM | 89.7 nM | 1920 nM | 1840 nM | 1220 nM | – | –
O=C(CCCc1nc2ccccc2c(=O)[nH]1)N1CCC(c2nnc(-c3ccc(F)c(Cl)c3)o2)CC1 [Example 25, 2-(4-(4-(5-(3-chloro-4-fluorophenyl)-1,3,4-oxadiazol-2-yl)piperidin-1-yl)-4-oxobutyl)quinazolin-4(3H)-one] | 2300 nM | 3.91 nM | 9.61 nM | 1360 nM | 224 nM | 240 nM | – | –
O=C(CCCc1nc2ccccc2c(=O)[nH]1)N1CCC(c2nnc(-c3ccccc3)s2)CC1 [Example 9, 2-(4-oxo-4-(4-(5-phenyl-1,3,4-thiadiazol-2-yl)-1-piperidinyl)butyl)-4(3H)-quinazolinone] | 2860 nM | 18.5 nM | 168 nM | 471 nM | 56.6 nM | 1230 nM | – | –
O=C(CCc1nc2ccccc2c(=O)[nH]1)N1CCC(c2nnc(-c3ccccc3)o2)CC1 [Example 98, 2-(3-oxo-3-(4-(5-phenyl-1,3,4-oxadiazol-2-yl)piperidin-1-yl)propyl)quinazolin-4(3H)-one] | 3460 nM | 199 nM | 161 nM | 806 nM | 2730 nM | 3990 nM | – | –
